Results from publication PMC8713164, “Development of a 1,2,4-Triazole-Based Lead Tankyrase Inhibitor: Part II” (Journal of Medicinal Chemistry, 2021).
Read-outs that look alike come from different tables or passages of the source.

Legend:
TNKS1 = target: T1, TNKS1 (Homo sapiens, UniProt O95271); assay: TNKS1 biochemical assay (unreacted NAD+ fluorescence); conditions: TNKS1 20 nM, 10 μM NAD+, 20 h
T1 construct: TNKS1 (residues 1030–1317); made in house
Description: New compounds were prepared in half-log dilution series, and the reactions were carried out in quadruplicates with protein and compound controls to exclude the effect of compound autofluorescence. All reactions were performed at ambient temperature. TNKS1 (20 nM) or TNKS2 (5 nM) was incubated for 20 h in assay buffer (50 mM Bis-Tris propane (BTP), pH 7.0, 0.5 mM Tris(2-carboxyethyl)phosphine (TCEP), 0.01% Triton X-100) with compound and 10 μM or 500 nM NAD^+, respectively.

WNT/β-catenin signaling = assay: cellular (HEK293) WNT/β-catenin signaling luciferase reporter assay; type: cell-based, human; conditions: for IC50: Homo sapiens
COLO 320DM cells = assay: cells
Description: (§1) After 5 days, the antiproliferative effect of compound treatment was measured at 490 nm. Mean value ± standard deviation (SD) for one representative experiment of more than three repeated assays, each with six replicates, are shown. […] (b) Representative immunoblots of cytoplasmic TNKS1/2, AXIN1, AXIN2, and cytoplasmic and nuclear transcriptionally active β-catenin (non-phospho) and β-catenin. […] For (b) and (c), control = 0.001% DMSO. (c) Real-time RT-qPCR analyses of WNT/β-catenin signaling target genes (AXIN2, DKK1, NKD1, and APCDD1). Boxplots show median, first and third quartiles, and maximum and minimum whiskers for combined data from three independent experiments with three replicates each. Dotted lines depict the control mean value = 1. For (a) and (c), analysis of variance (ANOVA) tests (Holm–Sidak method, versus control) are indicated by *** (p < 0.001) and * (p < 0.05), while ANOVA on ranks tests (Dunn’s method, versus control) are indicated by ^† (p < 0.05).
(§2) Antiproliferative assays using colon cancer cell lines COLO 320DM and RKO were performed as previously described.[39]

RKO cells = assay: MTS colorimetric cell growth assay, RKO; type: cell-based, human
Description: as §1, §2

[1] = mouse peroral pharmacokinetic analysis; type: in vivo; conditions: mouse PO 5 mg/kg
Description: The pharmacokinetic analyses in mice were performed according to the standard protocols of Medicilon as previously described[21] following approval by local animal experiment authorities (Shanghai, China) and in compliance with FELASA guidelines and recommendations. Three IRC mice were used per treatment group: 5 mg/kg 24 in 5% DMSO, 50% PEG400 (both Sigma-Aldrich), and 45% saline as vehicle.

in vitro = in vitro ADME; conditions: human, Caco-2
Description: (§3) Kinetic solubility, microsomal stability, and plasma stability were determined following our internal protocol (Symeres). The Caco-2 and PPB determinations were performed by Cyprotex.

[2] = microsomal stability, human; type: in vitro ADME; conditions: microsomes
Description: as §3

[3] = microsomal stability, mouse; type: in vitro ADME; conditions: microsomes
Description: as §3

[4] = microsomal stability, dog; type: in vitro ADME; conditions: microsomes
Description: as §3

mouse plasma stability = type: in vitro ADME; conditions: read-out: mouse plasma stability t1/2
Description: as §3

PARP1/2/3/4/10/12/14/15 = assay: PARP enzyme panel, summary line of Table 5; type: biochemical; conditions: one bound for all eight PARPs
Description: (§4) All reactions were performed at ambient temperature.
(§5) The assay conditions for the other PARP enzymes were used as previously described.[39]

PARP2 = target: T2, PARP2 (Homo sapiens, UniProt Q9UGN5); assay: PARP2 biochemical assay; conditions: > under 50% inhibition
T2 construct: made in house
Description: as §4, §5

PARP3 = target: T3, PARP3 (Homo sapiens, UniProt Q9Y6F1); assay: PARP3 biochemical assay; conditions: > under 50% inhibition
T3 construct: made in house
Description: The enzymatic assay measures unreacted NAD^+, which is chemically reacted into a fluorescent compound.[53] […] All reactions were performed at ambient temperature.
The assay conditions for the other PARP enzymes were used as previously described.[39] Reference compound OD336 behaved in this assay as previously reported.[28]

PARP4 = target: T4, PARP4 (Homo sapiens, UniProt Q9UKK3); assay: PARP4 biochemical assay; conditions: > under 50% inhibition
T4 construct: made in house
Description: as §4, §5

PARP12 = target: T5, PARP12 (Homo sapiens, UniProt Q9H0J9); assay: PARP12 biochemical assay; conditions: >>: no inhibition detected; concentration limited by DMSO tolerance
T5 construct: made in house
Description: as §4, §5

PARP15 = target: T6, PARP15 (Homo sapiens, UniProt Q460N3); assay: PARP15 biochemical assay; conditions: >>: no inhibition detected; concentration limited by DMSO tolerance
T6 construct: made in house
Description: as §4, §5

hERG = target: T7, hERG (Homo sapiens, UniProt Q12809); assay: hERG inhibition
T7 construct: Eurofins (Cerep), contract assay
Description: (§6) A safety panel (Cerep) of 44 selected targets (n = 2) including hERG Inhibition using 10 μM 24 was performed by Eurofins. Ames and CYP3A4 inhibition assays were performed by Cyprotex, and the PXR assay (CYP induction) was performed at Admescope. The PARP assays are described below.

[5] = system: Cerep Safety panel 44 targets; assay: Cerep safety panel of 44 selected targets; conditions: 10 μM
Description: as §6

T1 sequence (O95271 1030-1317): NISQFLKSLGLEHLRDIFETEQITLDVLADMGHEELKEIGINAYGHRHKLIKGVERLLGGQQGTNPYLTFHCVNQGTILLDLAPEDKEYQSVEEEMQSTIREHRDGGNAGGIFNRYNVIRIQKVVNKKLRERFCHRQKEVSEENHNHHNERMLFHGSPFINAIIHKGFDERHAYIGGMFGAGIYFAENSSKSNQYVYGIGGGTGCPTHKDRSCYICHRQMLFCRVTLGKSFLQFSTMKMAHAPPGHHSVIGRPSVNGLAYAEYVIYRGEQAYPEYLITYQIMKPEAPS
T4 sequence (Q9UKK3 whole entry): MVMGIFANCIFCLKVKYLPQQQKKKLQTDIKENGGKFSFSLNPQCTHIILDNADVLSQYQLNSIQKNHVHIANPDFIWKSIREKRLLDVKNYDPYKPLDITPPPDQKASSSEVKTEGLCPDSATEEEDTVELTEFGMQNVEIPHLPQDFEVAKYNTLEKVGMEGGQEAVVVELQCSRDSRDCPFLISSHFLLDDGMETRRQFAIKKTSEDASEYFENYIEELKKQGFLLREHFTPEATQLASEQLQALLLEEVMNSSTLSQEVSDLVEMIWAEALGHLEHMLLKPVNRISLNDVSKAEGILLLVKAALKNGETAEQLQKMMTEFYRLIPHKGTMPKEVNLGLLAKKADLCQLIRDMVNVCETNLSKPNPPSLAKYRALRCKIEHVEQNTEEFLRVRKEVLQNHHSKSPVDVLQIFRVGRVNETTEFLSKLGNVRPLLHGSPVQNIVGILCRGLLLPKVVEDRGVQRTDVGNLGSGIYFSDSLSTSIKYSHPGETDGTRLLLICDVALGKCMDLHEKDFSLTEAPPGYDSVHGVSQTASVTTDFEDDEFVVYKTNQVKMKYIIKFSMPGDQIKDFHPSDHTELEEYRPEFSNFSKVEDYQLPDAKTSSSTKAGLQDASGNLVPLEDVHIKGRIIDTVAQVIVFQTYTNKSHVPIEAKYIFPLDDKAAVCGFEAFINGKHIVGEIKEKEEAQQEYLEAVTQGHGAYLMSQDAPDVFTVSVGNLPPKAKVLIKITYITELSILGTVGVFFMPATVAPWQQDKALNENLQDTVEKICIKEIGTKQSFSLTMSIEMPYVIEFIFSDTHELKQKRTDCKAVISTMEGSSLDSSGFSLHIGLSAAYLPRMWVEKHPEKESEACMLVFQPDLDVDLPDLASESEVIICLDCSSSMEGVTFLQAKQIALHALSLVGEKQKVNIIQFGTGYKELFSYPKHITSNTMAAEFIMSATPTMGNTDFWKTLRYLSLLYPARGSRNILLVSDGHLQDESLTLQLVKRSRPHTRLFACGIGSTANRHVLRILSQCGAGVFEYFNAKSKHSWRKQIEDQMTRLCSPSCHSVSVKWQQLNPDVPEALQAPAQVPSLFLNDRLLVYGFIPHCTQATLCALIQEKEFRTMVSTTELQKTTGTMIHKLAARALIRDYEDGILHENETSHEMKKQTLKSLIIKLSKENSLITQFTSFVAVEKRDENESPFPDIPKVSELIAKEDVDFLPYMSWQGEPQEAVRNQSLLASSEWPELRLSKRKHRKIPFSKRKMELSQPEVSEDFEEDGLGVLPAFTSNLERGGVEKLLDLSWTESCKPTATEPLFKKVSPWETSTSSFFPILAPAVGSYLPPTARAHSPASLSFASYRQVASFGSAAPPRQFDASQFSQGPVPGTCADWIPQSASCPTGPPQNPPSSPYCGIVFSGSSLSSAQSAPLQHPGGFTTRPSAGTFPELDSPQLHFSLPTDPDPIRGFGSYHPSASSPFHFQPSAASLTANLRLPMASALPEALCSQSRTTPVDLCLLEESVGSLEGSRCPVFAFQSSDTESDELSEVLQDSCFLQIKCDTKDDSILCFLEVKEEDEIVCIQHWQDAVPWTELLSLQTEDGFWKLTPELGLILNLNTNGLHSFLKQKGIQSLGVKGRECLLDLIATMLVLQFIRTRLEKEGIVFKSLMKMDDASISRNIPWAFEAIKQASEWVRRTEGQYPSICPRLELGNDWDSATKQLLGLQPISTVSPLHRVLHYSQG
T7 sequence (Q12809 whole entry): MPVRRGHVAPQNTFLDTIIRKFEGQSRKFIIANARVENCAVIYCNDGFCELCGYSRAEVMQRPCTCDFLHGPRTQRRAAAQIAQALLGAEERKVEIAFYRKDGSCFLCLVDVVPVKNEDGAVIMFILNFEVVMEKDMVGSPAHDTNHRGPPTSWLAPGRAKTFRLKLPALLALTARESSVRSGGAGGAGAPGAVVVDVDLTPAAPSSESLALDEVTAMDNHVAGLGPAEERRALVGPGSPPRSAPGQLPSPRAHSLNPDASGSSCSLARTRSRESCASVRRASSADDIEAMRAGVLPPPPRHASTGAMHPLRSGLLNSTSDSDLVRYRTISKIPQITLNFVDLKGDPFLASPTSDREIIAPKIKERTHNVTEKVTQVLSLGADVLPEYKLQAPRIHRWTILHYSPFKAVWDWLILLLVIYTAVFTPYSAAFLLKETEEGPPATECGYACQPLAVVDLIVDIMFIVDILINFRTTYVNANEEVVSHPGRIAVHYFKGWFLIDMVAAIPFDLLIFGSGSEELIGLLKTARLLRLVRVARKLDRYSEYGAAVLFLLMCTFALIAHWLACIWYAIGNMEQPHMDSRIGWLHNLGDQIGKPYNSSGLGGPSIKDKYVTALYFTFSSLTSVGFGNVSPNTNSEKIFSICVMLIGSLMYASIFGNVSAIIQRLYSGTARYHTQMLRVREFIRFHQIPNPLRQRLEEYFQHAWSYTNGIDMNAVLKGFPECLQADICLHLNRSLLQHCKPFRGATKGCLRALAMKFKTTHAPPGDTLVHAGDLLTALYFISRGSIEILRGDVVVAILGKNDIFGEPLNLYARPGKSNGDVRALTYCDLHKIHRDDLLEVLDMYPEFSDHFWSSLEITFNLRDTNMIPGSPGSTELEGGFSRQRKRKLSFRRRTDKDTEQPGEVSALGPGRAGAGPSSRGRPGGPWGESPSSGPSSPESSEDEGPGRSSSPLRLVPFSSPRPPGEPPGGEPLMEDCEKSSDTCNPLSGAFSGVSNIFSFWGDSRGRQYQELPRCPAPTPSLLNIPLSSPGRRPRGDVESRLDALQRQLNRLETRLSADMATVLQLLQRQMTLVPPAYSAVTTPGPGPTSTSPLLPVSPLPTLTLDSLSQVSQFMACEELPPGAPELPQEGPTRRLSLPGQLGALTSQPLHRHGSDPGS
T2 sequence (Q9UGN5 whole entry): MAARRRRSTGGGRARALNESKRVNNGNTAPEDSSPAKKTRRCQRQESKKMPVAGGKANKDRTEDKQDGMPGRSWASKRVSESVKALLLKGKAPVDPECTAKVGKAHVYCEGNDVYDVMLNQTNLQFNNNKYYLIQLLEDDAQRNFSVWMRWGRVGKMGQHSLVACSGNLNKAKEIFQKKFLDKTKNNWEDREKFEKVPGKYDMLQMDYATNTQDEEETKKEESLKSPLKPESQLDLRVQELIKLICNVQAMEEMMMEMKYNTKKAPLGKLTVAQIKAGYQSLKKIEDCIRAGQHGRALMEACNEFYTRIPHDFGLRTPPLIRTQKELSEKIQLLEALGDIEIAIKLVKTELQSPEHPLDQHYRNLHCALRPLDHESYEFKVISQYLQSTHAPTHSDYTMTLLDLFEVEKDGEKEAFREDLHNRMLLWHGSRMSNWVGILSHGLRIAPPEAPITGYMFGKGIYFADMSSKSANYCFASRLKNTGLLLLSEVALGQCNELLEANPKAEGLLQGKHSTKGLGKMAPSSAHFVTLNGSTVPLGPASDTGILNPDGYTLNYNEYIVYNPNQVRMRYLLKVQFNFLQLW
T6 sequence (Q460N3 whole entry): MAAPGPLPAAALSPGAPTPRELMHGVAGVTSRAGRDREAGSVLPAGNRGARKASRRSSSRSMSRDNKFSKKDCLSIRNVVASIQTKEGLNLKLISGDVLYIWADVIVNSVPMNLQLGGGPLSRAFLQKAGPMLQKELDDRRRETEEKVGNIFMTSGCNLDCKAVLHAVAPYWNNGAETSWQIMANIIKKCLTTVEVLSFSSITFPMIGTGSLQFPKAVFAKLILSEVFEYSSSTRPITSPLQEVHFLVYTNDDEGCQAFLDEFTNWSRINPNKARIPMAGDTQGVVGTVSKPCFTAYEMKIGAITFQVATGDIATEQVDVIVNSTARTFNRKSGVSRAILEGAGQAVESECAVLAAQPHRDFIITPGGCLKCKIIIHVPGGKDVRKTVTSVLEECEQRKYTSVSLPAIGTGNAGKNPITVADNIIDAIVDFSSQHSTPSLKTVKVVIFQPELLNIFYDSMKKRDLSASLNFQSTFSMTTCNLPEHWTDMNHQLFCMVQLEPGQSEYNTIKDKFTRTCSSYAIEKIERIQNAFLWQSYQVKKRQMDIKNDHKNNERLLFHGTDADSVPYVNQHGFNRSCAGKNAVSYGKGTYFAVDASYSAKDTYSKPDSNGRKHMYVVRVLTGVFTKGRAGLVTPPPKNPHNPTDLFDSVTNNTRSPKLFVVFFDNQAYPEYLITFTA
T3 sequence (Q9Y6F1 whole entry): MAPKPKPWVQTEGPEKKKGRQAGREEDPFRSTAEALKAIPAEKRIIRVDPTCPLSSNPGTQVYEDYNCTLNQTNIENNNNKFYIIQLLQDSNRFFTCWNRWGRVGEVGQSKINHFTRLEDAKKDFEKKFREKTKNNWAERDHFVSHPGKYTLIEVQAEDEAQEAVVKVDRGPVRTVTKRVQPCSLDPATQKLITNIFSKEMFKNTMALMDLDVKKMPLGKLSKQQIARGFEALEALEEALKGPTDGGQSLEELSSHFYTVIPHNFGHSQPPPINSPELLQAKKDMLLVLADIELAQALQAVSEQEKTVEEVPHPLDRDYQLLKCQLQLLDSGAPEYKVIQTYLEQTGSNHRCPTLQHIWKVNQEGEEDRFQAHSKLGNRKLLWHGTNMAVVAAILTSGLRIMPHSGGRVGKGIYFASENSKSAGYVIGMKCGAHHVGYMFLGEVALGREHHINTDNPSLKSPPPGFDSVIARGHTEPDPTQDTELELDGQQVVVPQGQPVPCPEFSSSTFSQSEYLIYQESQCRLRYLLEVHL

CCOc1ccc(-c2nnc([C@H]3C[C@H](NC(=O)c4cccc5nccnc45)C3)n2-c2ccccc2F)nc1 [Compound 24, N-(trans-3-(5-(5-Ethoxypyridin-2-yl)-4-(2-fluorophenyl)-4H-1,2,4-triazol-3-yl)cyclobutyl)quinoxaline-5-carboxamide]
IC50 (TNKS1): 13 nM
TNKS1 pIC50 ± SEM (TNKS1): 7.90 ± 0.054
IC50 (WNT/β-catenin signaling; HEK293, read-out: HEK293 reporter assay pIC50 ± SEM (converted)): 0.603 nM
IC50 (WNT/β-catenin signaling; HEK293, read-out: IC50 HEK293, HEK293 WNT/β-catenin signaling reporter assay, triplicates, 24: averages of multiple independent measurements): 0.63 nM
efficacy in the cellular WNT/β-catenin signaling reporter assay relative to 1 (WNT/β-catenin signaling; times higher than 1): approximately 30 times
GI50 (COLO 320DM cells; Homo sapiens, COLO 320DM, 120 h, read-out: COLO 320DM cells GI50, MTS, 5 days): 10.1 nM
COLO 320DM cells GI25 (COLO 320DM cells; MTS, 5 days): 2.5 nM
GI50 (COLO 320DM cells; read-out: COLO 320DM cells GI50, MTS, 5 days): 10 nM
effect of treatment on RKO cell viability (RKO cells; APC wild-type control colon cancer line): only modestly affected
GI50 (RKO cells; Homo sapiens, RKO, 120 h, read-out: RKO cells GI50): > 10000 nM
AUC(0-inf) at 24 h ([1]; IRC, in vivo): 5040 ng·h/mL
AUC(0-t) ([1]; IRC, in vivo): 4940 ng·h/mL
Cmax at 24 h ([1]; IRC, in vivo): 1970 ng/mL
Tmax at 24 h ([1]; IRC, in vivo): 0.5 h
half-life at 24 h ([1]; IRC, in vivo): 1.5 h
MRT inf at 24 h ([1]; IRC, in vivo, read-out: MRT 0 → ∞): 2.39 h
CL [1]: 16.5 mL/min/kg
Vd [1]: 2.15 L/kg
peak value (Cmax) relative to that of 1 [1]: about 60%
Papp A→B at 2 h, 10 µM (in vitro): 40.5 ×10⁻⁶ cm/s
efflux ratio (in vitro): 0.64
microsomal CLint at 1 h [2]: 18 µL/min/mg
microsomal CLint at 1 h [3]: 22 µL/min/mg
microsomal CLint at 1 h [4]: 3.8 µL/min/mg
half-life (mouse plasma stability): > 2 h
IC50 (PARP1/2/3/4/10/12/14/15): > 10000 nM
IC50 (PARP2): > 100000 nM
IC50 (PARP3): > 100000 nM
IC50 (PARP4): > 100000 nM
IC50 (PARP12): > 10000 nM
IC50 (PARP15): > 10000 nM
IC50 (hERG): > 25000 nM
Cerep Safety panel 44 targets (overall result) [5]: clean
Cerep Safety panel 44 targets inhibition, all targets ([5]; n = 2): < 50%
